Test results: US6737383B1, “Herbicidal oxadiazolidines” (priority 1999, dated 2004)

Tests used:
[1] = test system: velvetleaf; experiment: Test B pre/postemergence velvetleaf; format: in vivo, Abutilon theophrasti
Method in brief: (§1)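 Response is a visual 0-to-10 score relative to untreated plants, where 0 means no effect and 10 means complete control, taken twelve to sixteen days after application. Treatments went onto soil at planting and onto foliage of 1- to 4-leaf plants, using a surfactant-containing non-phytotoxic solvent.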

[2] = test system: morningglory; experiment: Test B pre/postemergence morningglory; format: in vivo, Ipomoea hederacea
Method in brief: as §1

[3] = test system: cocklebur; experiment: Test B pre/postemergence cocklebur; format: in vivo, Xanthium strumarium
Method in brief: as §1

[4] = test system: bamyardgrass; experiment: Test B flood test barnyardgrass; format: in vivo, Echinochloa crus-galli
Method in brief: (§2)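 Each value is a visual injury score relative to controls, with 10 meaning complete control and 0 no effect. Evaluation took place twelve to sixteen days after the 2-leaf-stage plants were treated and kept in the greenhouse.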

[5] = test system: surinam grass; experiment: Test B pre/postemergence surinam grass; format: in vivo, Brachiaria decumbens
Method in brief: as §1

[6] = test system: rape; experiment: Test B pre/postemergence rape; format: in vivo, Brassica napus
Method in brief: as §1

[7] = test system: pigweed; experiment: Test B pre/postemergence pigweed; format: in vivo, Amaranthus retroflexus
Method in brief: as §1

[8] = test system: smallflower flatsedge; experiment: Test B flood test smallflower flatsedge; format: in vivo, Cyperus difformis
Method in brief: as §2

[9] = test system: soybean; experiment: Test B pre/postemergence soybean; format: in vivo, Glycine max
Method in brief: as §1

[10] = test system: wild oat; experiment: Test B pre/postemergence wild oat; format: in vivo, Avena fatua
Method in brief: as §1

[11] = test system: blackgrass; experiment: Test B pre/postemergence blackgrass; format: in vivo, Alopecurus myosuroides
Method in brief: as §1

[12] = test system: crabgrass; experiment: Test B pre/postemergence crabgrass; format: in vivo, Digitaria sanguinalis
Method in brief: as §1

[13] = test system: giant foxtail; experiment: Test B pre/postemergence giant foxtail; format: in vivo, Setaria faberii
Method in brief: as §1

[14] = test system: purple nutsedge; experiment: Test B pre/postemergence purple nutsedge; format: in vivo, Cyperus rotundus
Method in brief: as §1

[15] = test system: sugar beet; experiment: Test B pre/postemergence sugar beet; format: in vivo, Beta vulgaris
Method in brief: as §1

[16] = test system: corn; experiment: Test B pre/postemergence corn; format: in vivo, Zea mays
Method in brief: as §1

[17] = Postemergence, Rate 62 g/ha, scale 0 to 10, 0 is no effect, 10 is complete control
[18] = Postemergence, Rate 250 g/ha, scale 0 to 10, 0 no effect, 10 complete control
[19] = Preemergence, Rate 31 g/ha, visual rating, scale 0 to 10 (0 no effect, 10 complete control)
[20] = Preemergence, Rate 62 g/ha, scale 0 to 10, 0 is no effect, 10 is complete control
[21] = Preemergence, Rate 125 g/ha, scale 0 to 10 (0 no effect, 10 complete control)
[22] = Preemergence, Rate 250 g/ha, scale of 0 to 10 where 0 is no effect and 10 is complete control
[23] = Rate 125 g/ha, Postemergence, scale 0 to 10, 0 no effect, 10 complete control
[24] = Rate 31 g/ha, Postemergence, scale 0 to 10
[25] = Rate 125 g/ha, Postemergence section (flood test species), scale 0 to 10, 0 no effect, 10 complete control
[26] = flood test, listed under Postemergence, Rate 250 g/ha, scale 0 to 10, 0 no effect, 10 complete control

Compound: COc1ccccc1-n1c(=O)on(C(=O)N(c2ccc(F)cc2F)C(C)C)c1=O [Compound 31]
- Velvetleaf plant response rating [1, 17]: 0
- Velvetleaf plant response rating [1, 18]: 0
- Velvetleaf plant response rating [1, 19]: 0
- Plant response rating, Velvetleaf [1, 20]: 0
- Plant response rating, Velvetleaf [1, 21]: 0
- Plant response rating, Velvetleaf [1, 22]: 0
- Velvetleaf plant response rating [1, 23]: 0
- Morningglory plant response rating [2, 17]: 0
- Morningglory plant response rating [2, 18]: 3
- Morningglory plant response rating [2, 19]: 0
- Plant response rating, Morningglory [2, 20]: 0
- Plant response rating, Morningglory [2, 21]: 0
- Plant response rating, Morningglory [2, 22]: 0
- Morningglory plant response rating [2, 24]: 0
- Morningglory plant response rating [2, 23]: 1
- Cocklebur plant response rating [3, 17]: 0
- Cocklebur plant response rating [3, 18]: 1
- Cocklebur plant response rating [3, 19]: 0
- Plant response rating, Cocklebur [3, 20]: 0
- Plant response rating, Cocklebur [3, 21]: 0
- Plant response rating, Cocklebur [3, 22]: 0
- Cocklebur plant response rating [3, 24]: 0
- Cocklebur plant response rating [3, 23]: 0
- Barnyardgrass plant response rating [4, 17]: 0
- Barnyardgrass plant response rating [4, 25]: 0
- Barnyardgrass plant response rating ([4]; Rate 500 g/ha, Postemergence section of Table B, 0 to 10 scale (0 no effect, 10 complete control)): 0
- Barnyardgrass plant response rating [4, 26]: 0
- B. signalgrass plant response rating [5, 17]: 0
- B. signalgrass plant response rating [5, 18]: 0
- B. signalgrass plant response rating [5, 19]: 0
- Plant response rating, B. signalgrass [5, 20]: 0
- Plant response rating, B. signalgrass [5, 21]: 0
- Plant response rating, B. signalgrass [5, 22]: 6
- B. signalgrass plant response rating [5, 24]: 0
- B. signalgrass plant response rating [5, 23]: 0
- Rape plant response rating [6, 17]: 0
- Rape plant response rating [6, 18]: 0
- Rape plant response rating [6, 19]: 0
- Plant response rating, Rape [6, 20]: 0
- Plant response rating, Rape [6, 21]: 0
- Plant response rating, Rape [6, 22]: 4
- Rape plant response rating [6, 24]: 0
- Rape plant response rating [6, 23]: 0
- Redroot pigweed plant response rating [7, 17]: 0
- Redroot pigweed plant response rating [7, 18]: 0
- Redroot pigweed plant response rating [7, 19]: 0
- Plant response rating, Redroot pigweed [7, 20]: 0
- Plant response rating, Redroot pigweed [7, 21]: 0
- Plant response rating, Redroot pigweed [7, 22]: 3
- Redroot pigweed plant response rating [7, 24]: 0
- Redroot pigweed plant response rating [7, 23]: 0
- S. Flatsedge plant response rating [8, 17]: 0
- S. Flatsedge plant response rating [8, 25]: 0
- S. Flatsedge plant response rating [8, 26]: 0
- Soybean plant response rating [9, 17]: 1
- Soybean plant response rating [9, 18]: 1
- Soybean plant response rating [9, 19]: 0
- Plant response rating, Soybean [9, 20]: 0
- Plant response rating, Soybean [9, 21]: 0
- Plant response rating, Soybean [9, 22]: 0
- Soybean plant response rating [9, 23]: 1
- Wild oats plant response rating [10, 17]: 0
- Wild oats plant response rating [10, 18]: 0
- Wild oats plant response rating [10, 19]: 0
- Plant response rating, Wild oats [10, 21]: 2
- Plant response rating, Wild oats [10, 22]: 4
- Wild oats plant response rating [10, 23]: 0
- Blackgrass plant response rating [11, 17]: 0
- Blackgrass plant response rating [11, 18]: 9
- Blackgrass plant response rating [11, 19]: 0
- Plant response rating, Blackgrass [11, 20]: 0
- Plant response rating, Blackgrass [11, 21]: 2
- Plant response rating, Blackgrass [11, 22]: 2
- Blackgrass plant response rating [11, 24]: 0
- Blackgrass plant response rating [11, 23]: 4
- Crabgrass plant response rating [12, 17]: 0
- Crabgrass plant response rating [12, 18]: 9
- Crabgrass plant response rating [12, 19]: 2
- Plant response rating, Crabgrass [12, 20]: 9
- Plant response rating, Crabgrass [12, 21]: 9
- Plant response rating, Crabgrass [12, 22]: 9
- Crabgrass plant response rating [12, 24]: 0
- Crabgrass plant response rating [12, 23]: 2
- Giant foxtail plant response rating [13, 17]: 0
- Giant foxtail plant response rating [13, 18]: 4
- Giant foxtail plant response rating [13, 19]: 1
- Plant response rating, Giant foxtail [13, 20]: 6
- Plant response rating, Giant foxtail [13, 21]: 8
- Plant response rating, Giant foxtail [13, 22]: 8
- Giant foxtail plant response rating [13, 24]: 0
- Giant foxtail plant response rating [13, 23]: 0
- Nutsedge plant response rating [14, 17]: 0
- Nutsedge plant response rating [14, 18]: 0
- Nutsedge plant response rating [14, 19]: 0
- Plant response rating, Nutsedge [14, 20]: 0
- Plant response rating, Nutsedge [14, 21]: 0
- Plant response rating, Nutsedge [14, 22]: 0
- Nutsedge plant response rating [14, 24]: 0
- Nutsedge plant response rating [14, 23]: 0
- Sugarbeets plant response rating [15, 17]: 0
- Sugarbeets plant response rating [15, 18]: 0
- Sugarbeets plant response rating [15, 19]: 0
- Plant response rating, Sugarbeets [15, 20]: 0
- Plant response rating, Sugarbeets [15, 21]: 0
- Plant response rating, Sugarbeets [15, 22]: 0
- Sugarbeets plant response rating [15, 23]: 0
- Corn plant response rating [16, 17]: 0
- Corn plant response rating [16, 18]: 0
- Corn plant response rating [16, 19]: 0
- Plant response rating, Corn [16, 20]: 0
- Plant response rating, Corn [16, 21]: 0
- Plant response rating, Corn [16, 22]: 0
- Corn plant response rating [16, 24]: 0
- Corn plant response rating [16, 23]: 0
